Test results reported in patent US4340539A, “Derivatives of 6-bromo penicillanic acid” (priority 1980, dated 1982).
Like-named read-outs stand apart in the source and are kept apart here.

Columns and labels:
[1] = test system: β-lactamase enzyme RTEM; conditions: cited from earlier work
[2] = Hygroscopicity; format: physicochemical; conditions: listed as 2β-chloromethyl-2α-methylpenam-3α-carboxylic acid sulfone
[3] = Storage stability of free acid; format: physicochemical; conditions: 23° C., seven days
[4] = Blood levels and half-life of BL-P2024 after oral administration of various doses to mice (Table 5); format: in vivo; conditions: mouse; for concentration at 0.5 h: 30 min; for concentration at 2 h: 120 min; for concentration at 1 h: 60 min
[5] = in vivo; parameters: species or system mice; conditions: mouse, blood, po, 100 mg/kg, Test 2, oral 100 mg/kg, 60 min; read-out: Blood level
Source text: Compounds prepared in 5% Propylene Glycol & TweenCMC-H2 O.
Values in parentheses are 95% confidence limits.
Assay Organism: E. coli A9675 (pH = 6.6, 0.1% inoculum)

[6] = test system: β-lactamase producing strains of S. aureus; assay: Therapeutic efficacy of amoxicillin in combinations with BL-P2024 in infected mice (Table 7); format: in vivo; conditions: Staphylococcus aureus, po, read-out: PD50/Treatment
[7] = Blood levels after oral administration to mice (Table 4); format: in vivo; conditions: mouse; for concentration at […]: assay organism S. aureus A-9606, read-out: Blood level
[8] = test system: β-lactamase producing strains of E. coli; assay: Therapeutic efficacy of amoxicillin in combinations with BL-P2024 in infected mice (Table 7); format: in vivo; conditions: oral
[9] = test system: β-lactamase; conditions: cited from earlier work
[10] = test system: β-lactamase-producing strains; conditions: in vitro and in vivo; cited from earlier work
[11] = test system: bacteria; conditions: cited from earlier work
[12] = oral 25 mg/kg, read-out: Blood level
[13] = oral 50 mg/kg, read-out: Blood level
[14] = oral 100 mg/kg, read-out: Blood level
[15] = oral 200 mg/kg, assay organism S. aureus A9606, read-out: Blood level

In the case of `CC1(C)[C@H](C(=O)O)N2C(=O)C(Br)[C@H]2S1(=O)=O` (stereo partly drawn) [(2S,5R,6S)-6β-Bromo-3,3-dimethyl-7-oxo-4-thia-1-azabicyclo[3.2.0]heptane-2-carboxylic acid, S,S-dioxide], the “inhibition of RTEM” value [1] is listed as “inhibit the action of the β-lactamase enzyme RTEM”.
In the case of `CC1(CCl)C(C(=O)O)N2C(=O)CC2S1(=O)=O` (stereo not drawn) [BL-P2013 free acid, 2β-chloromethyl-2α-methylpenam-3α-carboxylic acid sulfone], the hygroscopicity [2] is reported as “hygroscopic” and the storage stability [3] is reported as “unstable”.
Compound `CC(C)(C)C(=O)OCOC(=O)C1N2C(=O)CC2S(=O)(=O)C1(C)CCl` (stereo not drawn) [BL-P2024, Pivaloyloxymethyl 2β-Chloromethyl-2α-methylpenam-3α-carboxylate Sulfone] has a half-life ([4]; oral 25 mg/kg) of 0.667 h, a concentration at […] ([4]; oral 25 mg/kg, 15 min, read-out: Blood level) of 5900 ng/mL and a concentration at 0.5 h [4, 12] of 6200 ng/mL. It also gave a concentration at […] ([4]; oral 25 mg/kg, 90 min, read-out: Blood level) of 1900 ng/mL, a concentration at 2 h [4, 12] of 1300 ng/mL and a concentration at […] ([4]; oral 25 mg/kg, 150 min, read-out: Blood level) of 700 ng/mL. It also gave a half-life ([4]; oral 50 mg/kg) of 1 h, a concentration at […] ([4]; oral 50 mg/kg, 15 min, read-out: Blood level) of 7700 ng/mL and a concentration at 0.5 h [4, 13] of 9500 ng/mL. It also gave a concentration at 1 h [4, 13] of 6300 ng/mL, a concentration at […] ([4]; oral 50 mg/kg, 90 min, read-out: Blood level) of 4700 ng/mL and a concentration at […] ([4]; oral 50 mg/kg, 150 min, read-out: Blood level) of 2300 ng/mL. For the same compound, the half-life ([4]; oral 100 mg/kg) was 1.42 h, the concentration at […] ([4]; oral 100 mg/kg, 15 min, read-out: Blood level) was 12300 ng/mL and the concentration at 0.5 h [4, 14] was 12200 ng/mL. For the same compound, the concentration at 1 h [4, 14] was 9400 ng/mL, the concentration at […] ([4]; oral 100 mg/kg, 90 min, read-out: Blood level) was 7200 ng/mL and the concentration at 2 h [4, 14] was 5700 ng/mL. It also gave a concentration at […] ([4]; oral 100 mg/kg, 150 min, read-out: Blood level) of 4600 ng/mL, a concentration at […] ([4]; oral 200 mg/kg, 15 min, assay organism S. aureus A9606, read-out: Blood level) of 14700 ng/mL and a concentration at 0.5 h [4, 15] of 14400 ng/mL. The concentration at 1 h [4, 15] was 9800 ng/mL, the concentration at […] ([4]; oral 200 mg/kg, 90 min, assay organism S. aureus A9606, read-out: Blood level) was 8700 ng/mL and the concentration at 2 h [4, 15] was 5100 ng/mL. The half-life ([4]; oral 200 mg/kg, assay organism S. aureus A9606) was 1 h, the concentration at 1 h [5] was 7800 ng/mL and the ED50 ([6]; S. aureus A15091, challenge 5 × 10^8, vehicle TCMC) was greater than 200 mg/kg. The ED50 ([6]; S. aureus A20379, challenge 5 × 10^8, vehicle TCMC) was 200 mg/kg, the concentration at […] ([7]; 100 mg/kg, oral 100 mg/kg, 15 min) was 13100 ng/mL and the half-life ([7]; 100 mg/kg, oral 100 mg/kg, assay organism E. coli A-9675) was 1.17 h. For the same compound, the half-life ([7]; 100 mg/kg, oral 100 mg/kg, assay organism S. aureus A-9606) was 1 h, the concentration at […] ([7]; 200 mg/kg, oral 200 mg/kg, 150 min) was greater than 2500 ng/mL and the half-life ([7]; 200 mg/kg, oral 200 mg/kg, assay organism S. aureus A-9606) was 1 h. For the same compound, the PD50/Treatment ([8]; E. coli A9675, challenge 6 × 10^5, vehicle TCMC) was greater than 200 mg/kg, the PD50/Treatment ([8]; E. coli A9675, challenge 7 × 10^5, vehicle 50% DMSO) was greater than 25 mg/kg and the PD50/Treatment ([8]; E. coli A9675, challenge 7 × 10^5, vehicle TCMC) was greater than 25 mg/kg. For the same compound, the PD50/Treatment ([8]; E. coli A9675, challenge 9 × 10^5, vehicle 50% DMSO) was greater than 25 mg/kg.
For `CC1(C)[C@H](C(=O)O)N2C(=O)C[C@H]2S1(=O)=O` [CP-45899], the β-lactamase inhibition [9] is given as “irreversibly acting β-lactamase inhibitor”, the potentiation of ampicillin [10] is given as “potentiates the in vitro and in vivo activities of ampicillin” and the antibacterial activity [11] is given as “weak antibacterial activity”.
